Laboratory results: patent publication US5189211A, “Sulfonamide derivatives” (Taisho Pharmaceutical Co., Ltd., priority 1990, dated 1993)
Like-named read-outs stand apart in the source and are kept apart here.

Tests used:
[1] = tested on: blood platelet aggregation; test: In vitro test in rabbit: inhibition of U-46619-induced blood platelet aggregation in platelet rich plasma (thromboxane A2 antagonism); format: cell-based, male New Zealand strain house rabbits; conditions: rabbit PRP, U-46619 final concentration 5 μM, 37° C., 3 minutes preincubation, measured for 5 minutes, read-out: IC50 (concentration of the test drug required to bring 50% inhibition to the maximum aggregation rate)
Experimental: Experiment [In Vitro Test in Rabbit]
The remaining blood was centrifuged at 1500 g for 10 minutes to give platelet poor prasma (PPP). Platelet count of PRP was adjusted to 50-60×10^4 /μl by dilution of PRP by PPP.
Namely, a compound of Formula I as a test drug was dissolved in dimethyl sulfoxide and adjusted to the desired concentration with physiological saline solution.

thrombocytopenia = test: Test of acute thrombocytopenia in mice (U-46619-induced); format: in vivo, male ICR mice; conditions: administered peritoneally 30 seconds prior to U-46619 25 μg/kg caudal vein, platelet count 30 seconds after injection, class by dose giving more than 50% inhibition
Experimental: Experiment 2 [Test of Acute Thrombocytopenia in Mice]
Male ICR mice weighting 25 g were used (7-11 animals for each group).
Thrombocytopenia was induced by injection of an aggregation-inducing substance (U-46619) having thromboxane A2 -like action in amount of 25 μg/kg from the caudal vein. At 30 seconds after injection of U-46619, 20 μl of the blood was collected from the femoral artery, and the platelet counts were immediately measured by means of an automatic blood cell counter (CC-180A, made by Toa Iyoudenshi Co.).
The compound of Formula I was suspended in 5% gum arabic solution and administered peritoneally to the test animals 30 seconds prior to injection of U-46619. As a comparative drug, BM was tested as above.
The inhibition ratio of the thrombocytopenia was calculated by the proportion of the decrease ratio of platelet count of the group treated with the test drug to that of the group with 5% gum arabic solution, and the activity was determined by the following criterion.
+: More than 50% inhibition at a dose of 1.0 mg/kg
++: More than 50% inhibition at a dose of 0.3 mg/kg
+++: More than 50% inhibition at a dose of 0.1 mg/kg

[2] = Oryctolagus cuniculus, Platelet

IC50 [1, 2] [nM]	Compound	IC50 [1] [nM]	Activity (inhibition ratio of the thrombocytopenia) (thrombocytopenia)
	4-[2-(4-Methylsulfonylamino)ethylthio]phenylacetic acid [Compound No. 94]	3100	
12000	O=C(O)COc1ccc(CCNS(=O)(=O)c2ccccc2)cc1 [BM, 4-[2-(phenylsulfonylamino)ethyl]phenoxyacetic acid, reference compound]		+ (More than 50% inhibition at a dose of 1.0 mg/kg)
1100	O=C(O)CCc1ccc(SCCNS(=O)(=O)c2ccc(Cl)cc2)cc1 [Compound No. 52, 3-{4-[2-(4-chlorophenylsulfonylamino)ethylthio]phenyl}propionic acid]		
5800	Cc1ccc(S(=O)(=O)NCCSc2ccc(CCC(=O)O)cc2)cc1 [Compound No. 53, 3-{4-[2-(4-Methylphenylsulfonylamino)ethylthio]phenyl}propionic acid]		
2400	O=C(O)CCc1ccc(SCCNS(=O)(=O)c2ccc(F)cc2)cc1 [Compound No. 54, 3-{4-[2-(4-Fluorophenylsulfonylamino)ethylthio]phenyl}propionic acid]		
1700	O=C(O)CCc1ccc(SCCNS(=O)(=O)c2ccc(Br)cc2)cc1 [Compound No. 55, 3-{4-[2-(4-Bromophenylsulfonylamino)ethylthio]phenyl}propionic acid]		
7300	CCOC(=O)COc1ccc(CSCCNS(=O)(=O)c2ccc(Cl)cc2)cc1 [Compound No. 63, Ethyl 4-[2-(4-chlorophenylsulfonylamino)ethylthiomethyl]phenoxyacetate]		
1800	O=C(O)COc1c(F)cc(SCCNS(=O)(=O)c2ccccc2)cc1F [Compound No. 67, 2,6-difluoro-4-[2-(phenylsulfonylamino)ethylthio]phenoxyacetic acid]		+ (More than 50% inhibition at a dose of 1.0 mg/kg)
300	O=C(O)COc1c(F)cc(SCCNS(=O)(=O)c2ccc(Cl)cc2)cc1F [Compound No. 68, 2.6-Difluoro-4-[2-(4-chlorophenylsulfonylamino)ethylthio]phenoxyacetic acid]		+++ (More than 50% inhibition at a dose of 0.1 mg/kg)
540	Cc1ccc(S(=O)(=O)NCCSc2cc(F)c(OCC(=O)O)c(F)c2)cc1 [Compound No. 69, 2,6-Difluoro-4-[2-(4-methylphenylsulfonylamino)ethylthio]phenoxyacetic acid]		++ (More than 50% inhibition at a dose of 0.3 mg/kg)
1500	O=C(O)COc1ccc(SCCNS(=O)(=O)c2ccc(Cl)cc2)cc1F [Compound No. 71, 2-Fluoro-4-[2-(4-chlorophenylsulfonylamino)ethylthio]phenoxyacetic acid]		+ (More than 50% inhibition at a dose of 1.0 mg/kg)
4500	O=C(O)COc1ccc(SCCNS(=O)(=O)c2ccc(Cl)cc2)cc1 [Compound No. 74, 4-[2-(4-Chlorophenylsulfonylamino)ethylthio]phenoxyacetic acid]		
5200	O=C(O)COc1ccc(SCCNS(=O)(=O)c2ccc(Br)cc2)cc1 [Compound No. 78, 4-[2-(4-Bromophenylsulfonylamino)ethylthio]phenoxyacetic acid]		
1500	O=C(O)Cc1ccc(SCCNS(=O)(=O)c2ccc(Cl)cc2)cc1 [Compound No. 93, 4-[2-(4-Chlorophenylsulfonylamino)ethylthio]phenylacetic acid]		+ (More than 50% inhibition at a dose of 1.0 mg/kg)
1500	O=C(O)CCc1ccc(SCCNS(=O)(=O)c2ccc([N+](=O)[O-])cc2)cc1 [Compound No. 103, 3-{4-[2-(4-Nitrophenylsulfonylamino)ethylthio]phenyl}propionic acid]		
4500	O=C(O)COc1ccc(SCCNS(=O)(=O)c2ccc(F)cc2)cc1F [Compound No. 105, 2-Fluoro-4-[2-(4-fluorophenylsulfonylamino)ethylthio]phenoxyacetic acid]		
2000	O=C(O)COc1ccc(SCCNS(=O)(=O)c2ccc(Br)cc2)cc1F [Compound No. 106, 2-Fluoro-4-[2-(4-bromophenylsulfonylamino)ethylthio]phenoxyacetic acid]		
7400	COc1ccc(S(=O)(=O)NCCSc2ccc(OCC(=O)O)c(F)c2)cc1 [Compound No. 107, 2-Fluoro-4-[2-(4-methoxyphenylsulfonylamino)ethylthio]phenoxyacetic acid]		
630	O=C(O)Cc1ccc(SCCNS(=O)(=O)c2ccc(F)cc2)cc1 [Compound No. 112, 4-[2-(4-Fluorophenylsulfonylamino)ethylthio]phenylacetic acid]		
300	O=C(O)Cc1ccc(SCCNS(=O)(=O)c2ccc(Br)cc2)cc1 [Compound No. 113, 4-[2-(4-Bromophenylsulfonylamino)ethylthio]phenylacetic acid]		
920	COc1ccc(S(=O)(=O)NCCSc2ccc(CC(=O)O)cc2)cc1 [Compound No. 114, 4-[2-(4-Methoxyphenylsulfonylamino)ethylthio]phenylacetic acid]		
930	O=C(O)Cc1ccc(SCCNS(=O)(=O)c2ccc([N+](=O)[O-])cc2)cc1 [Compound No. 115, 4-[2-(4-Nitrophenylsulfonylamino)ethylthio]phenylacetic acid]		
580	O=C(O)COc1c(F)cc(SCCNS(=O)(=O)c2ccc(F)cc2)cc1F [Compound No. 119, 2,6-Difluoro-4-[2-(4-fluorophenylsulfonylamino)ethylthio]phenoxyacetic acid]		
330	O=C(O)COc1c(F)cc(SCCNS(=O)(=O)c2ccc(Br)cc2)cc1F [Compound No. 120, 2,6-Difluoro-4-[2-(4-bromophenylsulfonylamino)ethylthio]phenoxyacetic acid]		
750	O=C(O)COc1c(F)cc(SCCNS(=O)(=O)c2ccc([N+](=O)[O-])cc2)cc1F [Compound No. 121, 2,6-Difluoro-4-[2-(4-nitrophenylsulfonylamino)ethylthio]phenoxyacetic acid]		
670	COc1ccc(S(=O)(=O)NCCSc2cc(F)c(OCC(=O)O)c(F)c2)cc1 [Compound No. 125, 2,6-Difluoro-4-[2-(4-methoxyphenylsulfonylamino)ethylthio]phenoxyacetic acid]		
